# In ChEMBL document CHEMBL1145467, “SME-2-producing Serratia marcescens isolate from Switzerland” (2007):
# Tested on: Serratia marcescens
# Assay: Antimicrobial activity against Serratia marcescens AW isolated from parotidectomy patient
# Assay type: functional
row,Structure (SMILES),MIC [µg/mL]
1,C[C@@H](O)[C@H]1C(=O)N2C(C(=O)O)=C(S[C@@H]3CN[C@H](C(=O)N(C)C)C3)[C@H](C)[C@H]12 [MEROPENEM],8
2,C[C@@H](O)[C@H]1C(=O)N2C(C(=O)O)=C(SCCNC=N)C[C@H]12 [IMIPENEM ANHYDROUS],32
3,C[C@@H](O)[C@H]1C(=O)N2C(C(=O)O)=C(S[C@@H]3CN[C@H](C(=O)Nc4cccc(C(=O)O)c4)C3)[C@H](C)[C@H]12 [ERTAPENEM],4
